“Also recorded” adds a separate entry of the source. Like-named read-outs stand apart in the source and are kept apart here.
What was measured:
[1] = tested on: T-cell hybridoma DO-11.10; assay type: cell-based
[2] = target: T1, I-A^d (Mus musculus, UniProt P01921+P04228); experiment: Gel filtration binding of 125I-labeled peptide to purified Ia (I-A^d); conditions: I-A^d; 125I-labeled peptide, 48 hours at room temperature, no inhibitor
T1 construct: endogenous in cells
T1 sequence (P04228 24-256): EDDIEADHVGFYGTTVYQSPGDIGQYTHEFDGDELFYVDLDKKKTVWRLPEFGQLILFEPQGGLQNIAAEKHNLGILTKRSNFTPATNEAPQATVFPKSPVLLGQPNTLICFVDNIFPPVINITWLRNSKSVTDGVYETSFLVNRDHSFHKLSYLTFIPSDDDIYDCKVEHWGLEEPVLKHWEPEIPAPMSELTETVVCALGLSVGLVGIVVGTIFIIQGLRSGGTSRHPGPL
T1 sequence (P01921 28-265): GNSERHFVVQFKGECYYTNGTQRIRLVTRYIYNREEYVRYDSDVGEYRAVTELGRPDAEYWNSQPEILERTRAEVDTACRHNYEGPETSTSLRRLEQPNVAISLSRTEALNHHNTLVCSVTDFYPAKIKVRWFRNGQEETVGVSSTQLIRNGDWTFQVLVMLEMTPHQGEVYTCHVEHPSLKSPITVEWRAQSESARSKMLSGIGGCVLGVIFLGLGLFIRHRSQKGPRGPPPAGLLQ
Excerpt: (§1) The peptide P12-26 was modified by the addition of a tyrosine residue to the N-terminus to serve as an acceptor for the ^125 I.
(§2) Ia-molecules were purifed from Nonidet P-40 (NP-40) lysates of A20 (H2^d) or AKTB-1b (H2^k) cells by affinity chromatography using the following monoclonal antibodies: MK-D6 (I-A^d -specific), 10-3-6 (I-A^k -specific) specific) or 14-4-4 (I-E^d/k -specific) coupled to Sepharose 4B beads (Pharmacia Fine Chemicals, Sweden).
(§3) A gel filtration assay was used for determining the degree of association between immunogenic peptides and Ia. The assay is described in: Buus, S. et al., Proceeding of the National Academy of Sciences, U.S.A. (1986) 83:3968, the teaching of which is incorporated herein by reference. Briefly, 40 μmole of purified Ia in 1 percent NP-40/PBS was mixed with 0.2 μmole of ^125 I-labeled peptide (approximately 200,000 cpm for each experiment) and incubated for 48 hours at room temperature to allow for formation of the Ia-peptide complex. The Ia-peptide complexes were separated from free peptide by gel filtration and the percentage of peptide bound to Ia was calculated as the ratio of the ^125 I-labeled peptide in the void volume to the total ^125 I-labeled peptide recovered.

[3] = target: T2, I-A^k (Mus musculus, UniProt P01910+P06343); experiment: Gel filtration binding of 125I-labeled peptide to purified Ia (I-A^k); conditions: I-A^k; 125I-labeled peptide, 48 hours at room temperature, no inhibitor
T2 construct: endogenous in cells
T2 sequence (P01910 24-256): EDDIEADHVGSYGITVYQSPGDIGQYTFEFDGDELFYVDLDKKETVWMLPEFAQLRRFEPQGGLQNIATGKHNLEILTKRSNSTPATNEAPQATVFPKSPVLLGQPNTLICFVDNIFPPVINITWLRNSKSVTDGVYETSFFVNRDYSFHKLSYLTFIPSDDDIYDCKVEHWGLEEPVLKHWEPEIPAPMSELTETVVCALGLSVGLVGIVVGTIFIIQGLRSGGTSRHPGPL
T2 sequence (P06343 28-263): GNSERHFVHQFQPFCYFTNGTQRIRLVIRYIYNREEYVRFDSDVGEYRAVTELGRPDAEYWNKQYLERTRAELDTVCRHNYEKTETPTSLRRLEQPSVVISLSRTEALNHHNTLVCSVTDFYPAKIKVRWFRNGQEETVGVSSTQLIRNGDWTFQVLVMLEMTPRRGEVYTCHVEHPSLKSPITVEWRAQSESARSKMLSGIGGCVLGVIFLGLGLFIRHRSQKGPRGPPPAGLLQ
Excerpt: as §1, §2, §3

[4] = tested on: T-cell hybridoma 7B7.3; experiment: Activation of T-cell hybridoma 7B7.3 measured by IL-2 secretion; assay type: cell-based, Balb/c mouse; conditions: for Stimulation of 7B7.3: in the context of I-A^d; for Inhibition of P15-26-dependent 7B7.3 activation: P15-26 as activator, I-A^d context, IL-2 release
Method: (§4) T-cell hybridomas were obtained as described in Guillet et al., Science (1985) 235:865-870: and Lechler et al., J. Exp. Med. (1986) 163:678-696 (particularly references cited therein). The procedure for determining inhibition or activation is described in Guillet et al., supra.
(§5) The activation of T-cell hybridomas was measured by their ability to secrete IL-2 (T-cell hybridomas (5×10^4) that were incubated with 5×10^4 antigen-presenting cells in wells of a 96-well tissue Costar plate (no. 3596) in 200 μl RPMI complete medium containing the appropriate antigen concentrations). After 24 hrs of culture, supernatant (50 μl) was removed and then assayed for IL-2 content by its ability to maintain the growth of the IL-2 Dependent CTL-L cells: 1 μCi of ^3 H tritiated thymidine was added per well. Six hours later the cells were harvested by an automatic cell harvester (Skartron Inc., Sterling, Va.) and thymidine incorporation measured by scintillation counting.
The activity of T-cell hybridoma 7B7.3 was measured in the presence of various concentrations of P15-26, either in RPMI 1640 with 10 percent fetal calf serum alone or in the presence of P12-24 20 μM or P12-24 60 μM. A20 B-cell lymphomas (5×10^4 cells/well) were used as antigen presenting cells. After 24 hrs of culture, supernatant (50 μl) was harvested and then assayed for IL-2 concentration by following incorporation of ^3 H thymidine into the IL-2 dependent CTL-L cell line (10^4 cells/well). The indicated values in FIG. 2 represent the arithmetic mean of triplicate samples.
The following work was carried out to examine the competitive ability of peptides derived from Staphylococcus nuclease (Nase), residues 61-80 (P61-80) and from ovalbumin (Ova), residues 324-336 (P324-336) to inhibit P15-26-dependent activation of the hybridoma 7B7.3. Each of these peptides has been shown in their respective cases to be I-A^d -restricted and to be immunodominant for their respective antigens. Finnegan, A. et al. Journal of Experimental Medicine (1986) 164:897-910: Shimonkevitz, R. et al., Journal of Immunology (1984). 5×10^4 TA3 cells were added to each well. Various concentrations of P15-26 were added with either medium (RPMI 1640 with 10 percent fetal calf serum) alone or 30 μM or Ova (P324-36) of 60 μM of Nase ([…]). A20 B-cell lymphoma (5×10^4 cells/well) was used as antigen presenting cells. 7B7.3 T-cell hybridomas (5×10^4) were then added and cultured for 24 hrs. The level of T-cell stimulation was assayed by determining the IL-2 concentration as indicated in Example II. […] The degree of inhibition is […] upon the ratio of activator to inhibitor in each case.

[5] = tested on: T-cell hybridoma 8I; experiment: Activation of T-cell hybridoma 8I measured by IL-2 secretion; assay type: cell-based, A/J strain; conditions: for Stimulation of 8I: in the context of I-E^k
Method: as §4, §5
8I (I-E^k -restricted) T-cell hybridomas and TA3 B presenting cells (5×10^4) were cocultured with various concentration of P15-26 and either medium alone or 60 μM of Ova (P324-336) or 60 μM Nase (P61-80) as described above. […] In addition, no other peptides representative of the remainder of the Nase sequence were able to inhibit 7B7.3 activation.

| Substance | Stimulation of DO-11.10 [1] | Stimulation of 7B7.3 [4] | Stimulation of 8I [5] | Inhibition of P15-26-dependent 7B7.3 activation [4] | other results |
| --- | --- | --- | --- | --- | --- |
| P323-339: peptide P323-339 derived from ovalbumin (KISQAVHAAHAEINEAG; UniProt P01012 323-339, looked up, fragment) [reference compound] | responds to |  |  |  | Percent of Peptide Bound [2]: 10.6% |
| Lysozyme (Hen) (P46-61): lysozyme-derived peptide restricted by I-A^k [reference compound] |  |  |  |  | Percent of Peptide Bound [3]: 21.5% |
| P15-26: peptide which contains amino acid residues 15-26 of cI |  | is stimulated; also recorded: can be stimulated | recognizes the same peptide |  | EC50 ([4]; 7B7.3 co-cultured with P15-26 and P12-24 at 20 μM, read-out: 50 percent stimulation point of the P15-26 antigen dose response curve): 29.8 ± 2.8 µM; EC50 ([4]; 7B7.3 co-cultured with P15-26 and P12-24 at 60 μM, read-out: 50 percent stimulation point of the P15-26 antigen dose response curve): 70.3 µM; EC50 ([4]; P15-26 cultured with 7B7.3 alone, A20 antigen presenting cells, 24 hrs, IL-2, read-out: 50% stimulation point of the P15-26 antigen dose response curve): 20.7 ± 1.2 µM |
| Ova (P324-336): peptide from ovalbumin (Ova), residues 324-336, truncated analog of P323-339 (ISQAVHAAHAEIN; UniProt P01012 324-336, looked up, fragment) [reference compound] | responds less well |  |  | inhibit 7B7.3 activation in a dose-dependent manner | Effect on 8I activation ([5]; TA3 presenting cells, P15-26 stimulator, competitor peptide 60 μM): without effect |
| P12-24: homologous peptide which contains residues 12-24 of cI |  | Neither 7B7.3 nor 8I can be stimulated; also recorded: Neither T-cell can be stimulated | Neither 7B7.3 nor 8I can be stimulated; also recorded: Neither T-cell can be stimulated | inhibited activation by P15-26 in a dose-dependent manner; also recorded: inhibition of P15-26-dependent7B7.3 activation was observed; also recorded: inhibit activation by P15-26 in a dose dependent manner | Effect on 8I activation (IL-2 response) ([5]; I-E^k-restricted hybridoma, P12-24 as competitor): no statistically significant effect; also recorded: had no effect |
